Data from PMC6338342 (Journal of chromatography. B, Analytical technologies in …, 2016).
Read-outs that look alike come from different tables or passages of the source. Each block holds one molecule with its values, some of them ahead of it.

Tests used:
[1] = rat, in vivo, po
3T3-L1 cells = experiment: Adipocyte differentiation and Oil Red O staining; assay type: cell-based; details: 1 or 10 μM, Oil Red O staining on day 8
UMR106 cells = experiment: MTT cell proliferation assay; assay type: cell-based; details: 0.01, 0.1, 1, 10 μM, 24 h
UMR 106 cells = experiment: Alkaline phosphatase; assay type: cell-based; details: 0.01, 0.1, 1 μM, 48 h
in vivo = details: male, Sprague-Dawley, rat, po
[2] = male, Sprague-Dawley, rat, in vivo, po, 3 g/kg
[3] = male, Sprague-Dawley, rat, in vivo, po, 6 g/kg
[4] = male, Sprague-Dawley, rat, in vivo, po, 12 g/kg
[5] = male, Sprague-Dawley, rat, serum, po, 3 g/kg
[6] = male, Sprague-Dawley, rat, serum, po, 6 g/kg
[7] = male, Sprague-Dawley, rat, serum, po, 12 g/kg
[8] = rat serum, oral XLGB extract 3 g/kg, n = 6
[9] = rat serum, oral XLGB extract 6 g/kg, n = 6
[10] = rat serum, oral XLGB extract 12 g/kg, n = 6

Molecule: CC1(C)CC[C@]2(C(=O)O[C@@H]3O[C@H](CO[C@@H]4O[C@H](CO)[C@@H](O)[C@H](O)[C@H]4O)[C@@H](O)[C@H](O)[C@H]3O)CC[C@]3(C)C(=CC[C@@H]4[C@@]5(C)CC[C@H](O[C@@H]6OC[C@H](O)[C@H](O)[C@H]6O)[C@@](C)(CO)[C@@H]5CC[C@]43C)[C@@H]2C1 [Akebia saponin D, akebia saponin D]
AUC0–∞ ([1]; 6 g/kg): 756.83 ± 140.72 ng·h/mL
AUC(0-t) ([1]; 6 g/kg): 731.52 ± 131.54 ng·h/mL
MRT0–t ([1]; 6 g/kg): 2.41 ± 0.25 h
MRT0–∞ ([1]; 6 g/kg): 2.63 ± 0.25 h
AUC0–∞ ([1]; 12 g/kg): 2658.47 ± 241.31 ng·h/mL
AUC(0-t) ([1]; 12 g/kg): 2642.49 ± 233.18 ng·h/mL
MRT0–t ([1]; 12 g/kg): 5.03 ± 0.32 h
MRT0–∞ ([1]; 12 g/kg): 5.91 ± 0.50 h

Molecule: COc1ccc(-c2oc3c(CC=C(C)C)c(O[C@@H]4O[C@H](CO)[C@@H](O)[C@H](O)[C@H]4O)cc(O)c3c(=O)c2O[C@@H]2O[C@@H](C)[C@H](O)[C@@H](O)[C@H]2O[C@@H]2O[C@@H](C)[C@H](O)[C@@H](O)[C@H]2O)cc1 [Epimedin C, epimedin C]
AUC0–∞ ([1]; 3 g/kg): 69.33 ± 37.54 ng·h/mL
AUC(0-t) ([1]; 3 g/kg): 21.70 ± 3.40 ng·h/mL
MRT0–t ([1]; 3 g/kg): 1.41 ± 1.01 h
MRT0–∞ ([1]; 3 g/kg): 20.72 ± 19.70 h
AUC0–∞ ([1]; 6 g/kg): 1365.29 ± 80.31 ng·h/mL
AUC(0-t) ([1]; 6 g/kg): 1361.31 ± 79.46 ng·h/mL
MRT0–t ([1]; 6 g/kg): 1.45 ± 0.08 h
MRT0–∞ ([1]; 6 g/kg): 1.47 ± 0.08 h
AUC0–∞ ([1]; 12 g/kg): 4527.69 ± 474.54 ng·h/mL
AUC(0-t) ([1]; 12 g/kg): 4397.49 ± 435.63 ng·h/mL
MRT0–t ([1]; 12 g/kg): 3.07 ± 0.63 h
MRT0–∞ ([1]; 12 g/kg): 5.10 ± 4.50 h

Molecule: O=c1ccc2ccc3occc3c2o1 [Isopsoralen, isopsoralen]
AUC(0-inf) [2]: 2470 ± 494 ng·h/mL
AUC(0-t) [2]: 2390 ± 460 ng·h/mL
Cmax [2]: 270 ± 35 ng/mL
MRT inf [2]: 8.73 ± 3.76 h
MRT last [2]: 7.49 ± 2.83 h
Tmax [2]: 3.5 ± 2.49 h
half-life [2]: 413 ± 293 min
AUC(0-t) [3]: 15100 ± 1290 ng·h/mL
Cmax [3]: 1140 ± 100 ng/mL
MRT inf [3]: 12.2 ± 0.75 h
MRT last [3]: 11.7 ± 0.83 h
Tmax [3]: 3.67 ± 0.52 h
half-life [3]: 407 ± 65.4 min
AUC(0-inf) [4]: 19900 ± 2020 ng·h/mL
AUC(0-t) [4]: 19400 ± 2000 ng·h/mL
Cmax [4]: 1240 ± 72.2 ng/mL
MRT inf [4]: 14.2 ± 1.43 h
MRT last [4]: 13.3 ± 0.43 h
Tmax [4]: 1.67 ± 0.41 h
half-life [4]: 412 ± 206 min

Molecule: CC(C)=CCc1cc2c(cc1O)oc(=O)c1c3ccc(O)cc3oc21 [Psoralidin, psoralidin]
effect on adipogenesis of 3T3-L1 cells (3T3-L1 cells): obviously inhibited adipocyte formation
AUC0–∞ ([1]; 6 g/kg): 11.58 ± 0.94 ng·h/mL
AUC(0-t) ([1]; 6 g/kg): 8.80 ± 1.38 ng·h/mL
MRT0–t ([1]; 6 g/kg): 1.78 ± 0.36 h
MRT0–∞ ([1]; 6 g/kg): 3.13 ± 0.36 h
AUC0–∞ ([1]; 12 g/kg): 34.27 ± 16.04 ng·h/mL
AUC(0-t) ([1]; 12 g/kg): 27.78 ± 13.97 ng·h/mL
MRT0–t ([1]; 12 g/kg): 2.05 ± 0.45 h
MRT0–∞ ([1]; 12 g/kg): 2.78 ± 0.68 h

Molecule: C=C[C@H]1[C@H](O[C@@H]2O[C@H](CO)[C@@H](O)[C@H](O)[C@H]2O)OC=C2C(=O)OCC[C@H]21 [Sweroside, sweroside]
effect on proliferation of UMR 106 cells (UMR106 cells): excellent bioactivities
effect on alkaline phosphatase (ALP) activity of UMR 106 cells (UMR 106 cells): excellent bioactivities
effect on adipogenesis of 3T3-L1 cells (3T3-L1 cells): excellent bioactivities
AUC(0-inf) (in vivo; 3 g/kg): 452 ± 50.3 ng·h/mL
AUC(0-t) (in vivo; 3 g/kg): 313 ± 39.1 ng·h/mL
Cmax (in vivo; 3 g/kg): 35.6 ± 2.27 ng/mL
MRT inf (in vivo; 3 g/kg): 31.7 ± 4.64 h
Tmax (in vivo; 3 g/kg): 70.2 ± 15.6 min
half-life (in vivo; 3 g/kg): 1280 ± 200 min
AUC(0-inf) (in vivo; 6 g/kg): 690 ± 110 ng·h/mL
AUC(0-t) (in vivo; 6 g/kg): 598 ± 59.4 ng·h/mL
Cmax (in vivo; 6 g/kg): 135 ± 10.2 ng/mL
MRT inf (in vivo; 6 g/kg): 16.7 ± 7.3 h
MRT last (in vivo; 6 g/kg): 8.31 ± 2.11 h
half-life (in vivo; 6 g/kg): 828 ± 442 min
AUC(0-inf) (in vivo; 12 g/kg): 1330 ± 97.9 ng·h/mL
AUC(0-t) (in vivo; 12 g/kg): 1150 ± 35.3 ng·h/mL
Cmax (in vivo; 12 g/kg): 301 ± 19.4 ng/mL
MRT inf (in vivo; 12 g/kg): 19.2 ± 6.86 h
MRT last (in vivo; 12 g/kg): 8.25 ± 0.83 h
Tmax (in vivo; 12 g/kg): 30 min
half-life (in vivo; 12 g/kg): 1420 ± 739 min

Further lines, results first:

AUC(0-inf) [5]: 320 ± 96.9 ng·h/mL
AUC(0-t) [5]: 264 ± 76.2 ng·h/mL
Cmax [5]: 31.8 ± 4.77 ng/mL
MRT inf [5]: 26.2 ± 8.51 h
MRT last [5]: 16.4 ± 4.54 h
Tmax [5]: 0.5 h
half-life [5]: 1200 ± 506 min
AUC(0-inf) [6]: 4610 ± 572 ng·h/mL
AUC(0-t) [6]: 2600 ± 249 ng·h/mL
Cmax [6]: 652 ± 64.6 ng/mL
MRT inf [6]: 44.4 ± 6.88 h
MRT last [6]: 17.3 ± 0.63 h
Tmax [6]: 0.67 ± 0.26 h
half-life [6]: 1310 ± 252 min
AUC(0-inf) [7]: 3480 ± 121 ng·h/mL
AUC(0-t) [7]: 3330 ± 130 ng·h/mL
Cmax [7]: 1160 ± 102 ng/mL
MRT inf [7]: 9.43 ± 0.47 h
MRT last [7]: 6.67 ± 0.32 h
Tmax [7]: 1.67 ± 0.26 h
half-life [7]: 804 ± 45 min
Molecule: COc1ccc2c(c1O)-c1c(O)c(OC)cc3c1[C@H](C2)[N+](C)(C)CC3 [Magnoflorine, magnoflorine]

AUC(0-inf) [5]: 7.24 ± 6.25 ng·h/mL
AUC(0-t) [5]: 2.1 ± 0.78 ng·h/mL
Cmax [5]: 1.46 ± 0.38 ng/mL
MRT last [5]: 1.57 ± 0.81 h
Tmax [5]: 0.5 h
half-life [5]: 377 ± 435 min
AUC(0-inf) [6]: 60.6 ± 41 ng·h/mL
AUC(0-t) [6]: 41.1 ± 19 ng·h/mL
Cmax [6]: 10.7 ± 0.59 ng/mL
MRT inf [6]: 19.3 ± 20.7 h
MRT last [6]: 9.13 ± 9.19 h
Tmax [6]: 0.58 ± 0.2 h
half-life [6]: 673 ± 547 min
AUC(0-inf) [7]: 127 ± 32.3 ng·h/mL
AUC(0-t) [7]: 110 ± 30.3 ng·h/mL
Cmax [7]: 18.4 ± 5.4 ng/mL
MRT inf [7]: 17.2 ± 9.5 h
MRT last [7]: 8.79 ± 2.43 h
half-life [7]: 971 ± 619 min
Molecule: CC(C)=CCc1cc(-c2coc3cc(O)ccc3c2=O)ccc1O [Neobavaisoflavone, neobavaisoflavone]

AUC(0-inf) [5]: 2810 ± 701 ng·h/mL
AUC(0-t) [5]: 2740 ± 682 ng·h/mL
Cmax [5]: 290 ± 23.3 ng/mL
MRT inf [5]: 8.4 ± 2.93 h
MRT last [5]: 7.55 ± 2.44 h
Tmax [5]: 4.5 ± 1.22 h
half-life [5]: 383 ± 224 min
AUC(0-inf) [6]: 18500 ± 529 ng·h/mL
AUC(0-t) [6]: 18300 ± 511 ng·h/mL
Cmax [6]: 1380 ± 150 ng/mL
MRT inf [6]: 12.2 ± 0.9 h
MRT last [6]: 11.8 ± 0.99 h
Tmax [6]: 2.92 ± 1.28 h
half-life [6]: 407 ± 60 min
AUC(0-inf) [7]: 28400 ± 877 ng·h/mL
AUC(0-t) [7]: 28300 ± 899 ng·h/mL
Cmax [7]: 1910 ± 118 ng/mL
MRT inf [7]: 13.3 ± 1.18 h
MRT last [7]: 13.2 ± 1.14 h
half-life [7]: 252 ± 25.2 min
Molecule: O=c1ccc2cc3ccoc3cc2o1 [Psoralen, psoralen]

AUC0–∞ [8]: 53.60 ± 27.93 ng·h/mL
AUC(0-t) [8]: 31.63 ± 11.39 ng·h/mL
Cmax [8]: 10.25 ± 2.84 ng/mL
MRT0–t [8]: 6.26 ± 4.26 h
MRT0–∞ [8]: 18.47 ± 15.68 h
Tmax [8]: 0.50 ± 0 h
t1/2 [8]: 11.51 ± 9.48 h
AUC0–∞ [9]: 406.85 ± 56.64 ng·h/mL
AUC(0-t) [9]: 346.62 ± 36.95 ng·h/mL
Cmax [9]: 20.41 ± 2.63 ng/mL
MRT0–t [9]: 19.50 ± 3.03 h
MRT0–∞ [9]: 28.15 ± 8.89 h
Tmax [9]: 1.25 ± 1.04 h
t1/2 [9]: 19.08 ± 8.31 h
AUC0–∞ [10]: 379.76 ± 59.32 ng·h/mL
AUC(0-t) [10]: 343.30 ± 61.62 ng·h/mL
Cmax [10]: 36.00 ± 4.29 ng/mL
MRT0–t [10]: 13.56 ± 2.69 h
MRT0–∞ [10]: 18.40 ± 3.38 h
Tmax [10]: 1.58 ± 0.38 h
t1/2 [10]: 12.57 ± 3.06 h
Molecule: bavachinin

AUC0–∞ ([1]; 3 g/kg): 86.37 ± 67.67 ng·h/mL
AUC(0-t) ([1]; 3 g/kg): 10.62 ± 3.66 ng·h/mL
MRT0–t ([1]; 3 g/kg): 5.60 ± 5.20 h
MRT0–∞ ([1]; 3 g/kg): 51.11 ± 29.69 h
AUC0–∞ ([1]; 6 g/kg): 227.72 ± 52.75 ng·h/mL
AUC(0-t) ([1]; 6 g/kg): 166.50 ± 26.45 ng·h/mL
MRT0–t ([1]; 6 g/kg): 16.55 ± 4.24 h
MRT0–∞ ([1]; 6 g/kg): 33.27 ± 11.40 h
AUC0–∞ ([1]; 12 g/kg): 442.39 ± 107.76 ng·h/mL
AUC(0-t) ([1]; 12 g/kg): 386.15 ± 84.00 ng·h/mL
MRT0–t ([1]; 12 g/kg): 14.73 ± 1.76 h
MRT0–∞ ([1]; 12 g/kg): 20.65 ± 3.78 h
Molecule: corylin
